Data from patent publication US9422321B2, “Pyrimidine nucleoside derivatives, synthesis methods and uses thereof for preparing anti-tumor and anti-virus medicaments” (High & New Technology Research Center, Henan Academy of …, priority 2010, dated 2016).

Tests used:
VSVG/HIV-luc (NL4-3) = test: microbe, parasite or virus in culture; format: cell-based, HIV-1; conditions: Human immunodeficiency virus 1, NL43, HEK-293T; for inhibition at 10 µM: read-out: Inhibitory activity at 10 μM; for EC50: 48 h, read-out: EC50 (μM) VSVG/HIV-luc (NL4-3)
HBsAg = test: In vitro inhibition of HBV: HBsAg in HepG2.2.15 cells by ELISA; format: cell-based; conditions: Hepatitis B virus, HepG2.2.15, read-out: IC50 (μM) (HBsAg)
Description: (§1) A tube of frozen HepG2.2.15 cells taken from a liquid nitrogen tank was quickly placed into a water bath at 42° C. and shaken to thaw. DMEM complete medium (fetal bovine serum 10%, G418 380 μg/mL, Penicillin 100 U/ml, Streptomycin 100 U/ml) was used for cell culturing at conditions of 37° C. and 5% CO2. The number of cell passage in normal growing cells was once per 2-3 days.
(§2) The effect of a compound on HBV surface antigen s and antigen e in the cell culture was detected using a screening concentration lower than the half toxic concentration of the compound. HepG2.2.15 cells in logarithmic growth phase were selected and digested with trypsin into single cell suspension, and were seeded to a 24-well plate at a concentration of 2×10^4/mL, 1 mL per well. Media of different medicament concentrations were added, three wells for each concentration, and cells added with complete medium were set as normal control. Cell supernatants and cells at day 3, day 6 and day 9 were collected and kept under −20° C. The intracellular and extracellular expressions of e antigen and surface antigen at day 3, day 6 and day 9 were determined by ELISA.
(§3) 2.4 Effect of the Compound on HBeAg and HBsAg in HepG2.2.15 Cell Supernatant Detected by ELISA
(§4) The instructions of the kit were followed;
(§5) Measurement: OD value of each well was read from microplate reader using dual wavelength 450/630 nm.
(§6) Result determination: The Cutoff value was first calculated according to equation: COV=average OD of negative control×2.1. Then, if a sample had OD≧COV, the result was determined as positive, or if a sample had OD≦COV, the result was determined as negative.

HBeAg = test: In vitro inhibition of HBV: HBeAg in HepG2.2.15 cells by ELISA; format: cell-based; conditions: Hepatitis B virus, HepG2.2.15, read-out: IC50 (μM) (HBeAg)
Description: as §1, §2, §3, §4, §5, §6

[1] = MTS test of effects of the compound on cell survival; format: cell-based; conditions: human, 293T cells
Description: Then, 20 μL freshly prepared mixture of MTS/PMS was added to each well and after 4 h incubation in the incubator at 37° C. with 5% CO2, the color was developed. The light absorption (OD) of each well at wavelengths 490 nm and 650 nm (background) was detected on an enzyme linked immuno analyzer, and the survival rate of cells was calculated.

[2] = MTT test of cytotoxicity on HepG2.2.15 cells; format: cell-based; conditions: human, read-out: CC50 (μM) (HepG2. 2. 15)
Description: as §1
Cytotoxicity of the compound on HepG2.2.15 cells was tested with the MTT colorimetric assay established by Mosmann. After continuous incubation for 72 h, 10 μL MTT was added to each well. Four hours later, the supernatant was discarded and 200 μL DMSO was added to each well. The OD value in each well was read using a microplate reader (measurement wavelength 490 nm, reference wavelength 630 nm). The result was recorded and the percentage inhibition of HepG2.2.15 cells by each compound was calculated:
The half toxic concentration (TC50) of the medicament on cells was calculated according to the percentage inhibition of the cell by the medicament.

| SMILES | inhibition at 10 µM (VSVG/HIV-luc (NL4-3)) [%] | IC50 (HBsAg) [µM] | IC50 (HBeAg) [µM] | CC50 at 44 h [1] [µM] | EC50 (VSVG/HIV-luc (NL4-3)) [µM] | CC50 at 72 h [2] [µM] |
| --- | --- | --- | --- | --- | --- | --- |
| CCCCCNc1ccn([C@@H]2O[C@@](CO)(N=[N+]=[N-])C(O)C2F)c(=O)n1 (stereo partly drawn) [Compound 5-24] | 33.8 ± 1 |  |  |  |  |  |
| [N-]=[N+]=N[C@]1(CO)O[C@@H](n2ccc(NCC(=O)O)nc2=O)C(F)C1O (stereo partly drawn) [Compound 8a] |  | 13.8 | 16.7 | ≥ 25 | 5.1 ± 1.1 | > 250 |
| [N-]=[N+]=N[C@]1(CO)O[C@@H](n2ccc(NCc3ccco3)nc2=O)C(F)C1O (stereo partly drawn) [Compound 5-09] |  | 0.19 |  | ≥ 25 | 0.7 ± 0.1 | ≥ 25 |
| [N-]=[N+]=N[C@]1(CO)O[C@@H](n2ccc(NN3CCOCC3)nc2=O)C(F)C1O (stereo partly drawn) [Compound 5-22] | 14.2 ± 5.1 |  |  |  |  |  |
| [N-]=[N+]=N[C@]1(CO)O[C@@H](n2ccc(NCCCO)nc2=O)C(F)C1O (stereo partly drawn) [Compound 5-14] | 6.3 ± 3.2 | 2.46 |  |  |  | 668 |
| COC(=O)C(C)Nc1ccn([C@@H]2O[C@@](CO)(N=[N+]=[N-])C(O)C2F)c(=O)n1 (stereo partly drawn) [Compound 7m] |  | 1.89 | 21.2 | ≥ 25 | 10 ± 6.6 | 311 |
| CC(Nc1ccn([C@@H]2O[C@@](CO)(N=[N+]=[N-])C(O)C2F)c(=O)n1)C(=O)O (stereo partly drawn) [Compound 8m] |  |  |  | ≥ 25 | 0.5 ± 0.3 |  |
| [N-]=[N+]=N[C@]1(CO)O[C@@H](n2ccc(N3CCSCC3)nc2=O)C(F)C1O (stereo partly drawn) [Compound 5-29] | 11.6 ± 0.5 |  |  |  |  |  |
| [N-]=[N+]=N[C@]1(CO)O[C@@H](n2ccc(NC3CCCCC3)nc2=O)C(F)C1O (stereo partly drawn) [Compound 5-10] | 1.9 ± 2.2 | < 0.1 |  |  |  | 654 |
| [N-]=[N+]=N[C@]1(CO)O[C@@H](n2cc(C#CCCO)c(N)nc2=O)C(F)C1O (stereo partly drawn) [Compound 15] | 27 ± 4.7 |  |  |  |  |  |
| [N-]=[N+]=N[C@]1(CO)O[C@@H](n2ccc(NCC(N)=O)nc2=O)C(F)C1O (stereo partly drawn) [Compound 7j] |  |  | 6.16 | ≥ 25 | 10 ± 7 | 239 |
| [N-]=[N+]=N[C@]1(CO)O[C@@H](n2ccc(NNC(N)=O)nc2=O)C(F)C1O (stereo partly drawn) [Compound 5-30] | 38.6 ± 5.7 |  |  |  |  |  |
| [N-]=[N+]=N[C@]1(CO)O[C@@H](n2ccc(NCCc3c[nH]c4ccccc34)nc2=O)C(F)C1O (stereo partly drawn) [Compound 5-20] |  |  |  | ≥ 25 | 5.8 ± 2.6 | > 250 |
| CCCCCCCCNc1ccn([C@@H]2O[C@@](CO)(N=[N+]=[N-])C(O)C2F)c(=O)n1 (stereo partly drawn) [Compound 5-27] | 32.3 ± 3.2 |  |  |  |  |  |
| [N-]=[N+]=N[C@]1(CO)O[C@@H](n2cc(C(=O)N3CCSCC3)c(=O)[nH]c2=O)C(F)C1O (stereo partly drawn) [Compound 27] | 4.8 ± 1.8 | < 0.1 |  |  |  | 585 |
| CCCCCCNc1ccn([C@@H]2O[C@@](CO)(N=[N+]=[N-])C(O)C2F)c(=O)n1 (stereo partly drawn) [Compound 5-25] | 35 ± 1.7 |  |  |  |  |  |
| [N-]=[N+]=N[C@]1(CO)O[C@@H](n2cc3cc(CCO)oc3nc2=O)C(F)C1O (stereo partly drawn) [Compound 16] | 9.9 ± 0.8 |  |  |  |  |  |
| [N-]=[N+]=N[C@]1(CO)O[C@@H](n2ccc(NCC(O)CN)nc2=O)C(F)C1O (stereo partly drawn) [Compound 5-33] | 14.1 ± 2.2 |  |  |  |  |  |
| CCONc1ccn([C@@H]2O[C@@](CO)(N=[N+]=[N-])C(O)C2F)c(=O)n1 (stereo partly drawn) [Compound 5-08] | 15.6 ± 1.3 | 0.12 | > 1 |  |  | 572 |
| [N-]=[N+]=N[C@]1(CO)O[C@@H](n2cc(C(=O)N3CCCC3)c(=O)[nH]c2=O)C(F)C1O (stereo partly drawn) [Compound 25] | 16.8 ± 1.2 |  |  |  |  |  |
| [N-]=[N+]=N[C@]1(CO)O[C@@H](n2ccc(NCCO)nc2=O)C(F)C1O (stereo partly drawn) [Compound 5-13] | 41.7 ± 1.8 |  |  |  |  |  |
| COC(=O)[C@H](CCSC)Nc1ccn([C@@H]2O[C@@](CO)(N=[N+]=[N-])C(O)C2F)c(=O)n1 (stereo partly drawn) [Compound 8g] |  | 19.6 |  | ≥ 25 | 8.1 ± 5.5 | > 250 |
| CONc1ccn([C@@H]2O[C@@](CO)(N=[N+]=[N-])C(O)C2F)c(=O)n1 (stereo partly drawn) [Compound 5-07] | 29.4 ± 5.1 | < 0.01 | > 1 |  |  | 418 |

| SMILES | inhibition at 10 µM (VSVG/HIV-luc (NL4-3)) [%] | IC50 (HBsAg) [µM] | IC50 (HBeAg) [µM] | CC50 at 44 h [1] [µM] | EC50 (VSVG/HIV-luc (NL4-3)) [µM] | CC50 at 72 h [2] [µM] |
| --- | --- | --- | --- | --- | --- | --- |
| COC(=O)[C@H](Nc1ccn([C@@H]2O[C@@](CO)(N=[N+]=[N-])C(O)C2F)c(=O)n1)C(C)C (stereo partly drawn) [Compound 8f] |  | 0.26 |  | ≥ 25 | 4.7 ± 0.1 | > 250 |
| [N-]=[N+]=N[C@]1(CO)O[C@@H](n2cc(-c3ccco3)c(=O)[nH]c2=O)C(F)C1O (stereo partly drawn) [Compound 10] | 15.1 ± 0.8 |  |  |  |  |  |
| CN(C)c1ccn([C@@H]2O[C@@](CO)(N=[N+]=[N-])C(O)C2F)c(=O)n1 (stereo partly drawn) [Compound 5-21] |  |  | 15.5 | ≥ 25 | 13 ± 6 | > 250 |
| COC(=O)[C@@H]1CCCN1c1ccn([C@@H]2O[C@@](CO)(N=[N+]=[N-])C(O)C2F)c(=O)n1 (stereo partly drawn) [Compound 7L] | 5.1 ± 4.6 | 0.02 |  |  |  | 596 |
| [N-]=[N+]=N[C@]1(CO)O[C@@H](n2ccc(NCC(O)CO)nc2=O)C(F)C1O (stereo partly drawn) [Compound 5-18] | 17.8 ± 0.6 |  |  |  |  |  |
| Cc1cn([C@H]2C[C@H](N=[N+]=[N-])[C@@H](CO)O2)c(=O)[nH]c1=O [Zidovudine, reference compound] |  |  |  |  | 0.084 ± 0.0026 |  |
| COC(=O)[C@H](Cc1ccccc1)Nc1ccn([C@@H]2O[C@@](CO)(N=[N+]=[N-])C(O)C2F)c(=O)n1 (stereo partly drawn) [Compound 8n] |  |  | 4.41 | ≥ 25 | 5.4 ± 3 | > 250 |
| CCN(CC)c1ccn([C@@H]2O[C@@](CO)(N=[N+]=[N-])C(O)C2F)c(=O)n1 (stereo partly drawn) [Compound 5-04] | 8.6 ± 7.5 |  |  |  |  |  |
| COC(=O)[C@H](CO)Nc1ccn([C@@H]2O[C@@](CO)(N=[N+]=[N-])C(O)C2F)c(=O)n1 (stereo partly drawn) [Compound 8h] |  | 0.07 |  | ≥ 25 | 6.2 ± 0.6 | > 250 |
| [N-]=[N+]=N[C@]1(CO)O[C@@H](n2cc(C(=O)N3CCOCC3)c(=O)[nH]c2=O)C(F)C1O (stereo partly drawn) [Compound 22] | 0 | 2.14 |  |  |  | 644 |
| [N-]=[N+]=N[C@]1(CO)O[C@@H](n2ccc(NCCCN)nc2=O)C(F)C1O (stereo partly drawn) [Compound 5-32] | 0.9 ± 0.8 |  |  |  |  |  |
| [N-]=[N+]=N[C@]1(CO)O[C@@H](n2ccc(N3CCCC3)nc2=O)C(F)C1O (stereo partly drawn) [Compound 5-05] | 31.6 ± 3.6 |  |  |  |  |  |
| [N-]=[N+]=N[C@]1(CO)O[C@@H](n2ccc(NCc3ccccc3)nc2=O)C(F)C1O (stereo partly drawn) [Compound 5-16] | 31.3 ± 4 |  |  |  |  |  |
| CON(C)c1ccn([C@@H]2O[C@@](CO)(N=[N+]=[N-])C(O)C2F)c(=O)n1 (stereo partly drawn) [Compound 5-06] | 32.2 ± 10.5 |  |  |  |  |  |
| [N-]=[N+]=N[C@]1(CO)O[C@@H](n2ccc(NCCc3ccc(O)cc3)nc2=O)C(F)C1O (stereo partly drawn) [Compound 5-03] |  | < 0.1 |  | ≥ 25 | 5.7 ± 0.2 | 834 |
| CCCCCCCNc1ccn([C@@H]2O[C@@](CO)(N=[N+]=[N-])C(O)C2F)c(=O)n1 (stereo partly drawn) [Compound 5-26] | 33.9 ± 0.5 |  |  |  |  |  |
| COCCCNc1ccn([C@@H]2O[C@@](CO)(N=[N+]=[N-])C(O)C2F)c(=O)n1 (stereo partly drawn) [Compound 5-23] | 10.4 ± 3.5 |  |  |  |  |  |
| [N-]=[N+]=N[C@]1(CO)O[C@@H](n2cc(C#CCCO)c(=O)[nH]c2=O)C(F)C1O (stereo partly drawn) [Compound 14] | 10 ± 5.9 |  |  |  |  |  |
| [N-]=[N+]=N[C@]1(CO)O[C@@H](n2cc(-c3ccco3)c(N)nc2=O)C(F)C1O (stereo partly drawn) [Compound 12] | 15.8 ± 4.4 |  |  |  |  |  |
| CNNc1ccn([C@@H]2O[C@@](CO)(N=[N+]=[N-])C(O)C2F)c(=O)n1 (stereo partly drawn) [Compound 5-31] | 22.8 ± 3.5 |  |  |  |  |  |
| CCNc1ccn([C@@H]2O[C@@](CO)(N=[N+]=[N-])C(O)C2F)c(=O)n1 (stereo partly drawn) [Compound 5-01] | 21.6 ± 1.3 |  |  |  |  |  |
| [N-]=[N+]=N[C@]1(CO)O[C@@H](n2ccc(N3CCOCC3)nc2=O)C(F)C1O (stereo partly drawn) [Compound 5-12] | 3 ± 6.9 | < 0.1 | > 1 |  |  | 700 |
